Data taken from patent publication US20240376126A1, “PRMT5 INHIBITOR AND THE USE THEREOF” (CYTOSINLAB THERAPEUTICS CO., LTD., priority 2022, published 2024).

Key:
[1] = molecular target: PRMT5 MTA (Homo sapiens (Human), UniProt O14744); assay: PRMT5 inhibitory activity assay in vitro, enzyme solution with MTA ([3H]-SAM Flashplate); format: biochemical; conditions: MTA 2.0 um; read-out: Enzyme activity inhibition rate PRMT5 MTA (2.0 um) IC50 (nm)
Excerpt: Biological Test Example 1 PRMT5 Inhibitory Activity Assay In Vitro
PRMT5 (Active Motiv, catalog number 31921), [^3H]—SAM (Perkin Elmer, catalog number NET155V001MC), SAM (Sigma, catalog number A7007), MTA (Sigma, catalog number D5011), SAH (Sigma, catalog number A9384), 384-well plate (Perkin Elmer, catalog number 6007299), Echo 550 (manufacturer: Labcyte, model: Echo 550), 384-well Flashplate (manufacturer: Perkin Elmer, model: SMP410A001PK)
• (1) 1× Assay buffer (modified Tris buffer) was configured. • (2) Dilute compound: the compound was dissolved in 100% DMSO and the compound solution was added to a 384-well plate using Echo 550. • (3) Configure enzyme solution: PRMT5 was added to 1× assay buffer to prepare enzyme solution 1; PRMT5 and MTA was added to 1× assay buffer to prepare enzyme solution 2. • (4) Configure substrate solution: peptide segments and [3H]—SAM was added to 1× assay buffer. • (5) 15 μL of enzyme solution was added to the 384-well plate, and 15 μL of 1× assay buffer was added to the negative control well, and incubated at room temperature for 30 minutes. • (6) 15 μL of substrate solution was added to each well, and incubated at room temperature for 90 minutes. • (7) Configure termination reaction solution: pre-cooled SAM was added to 1× assay buffer. • (8) 10 μL of termination reaction solution was added to each well to terminate the reaction. • (9) 25 μL/well of the mixed solution was transferred to Flashplate and incubated for 1 hour at room temperature. • (10) the Flashplate three was washed times with dH2O+0.1% Tween-20 solution. • (11) the radiometric values was readed with Microbeta.
• (1) The raw data were converted to % inhibition according to Equation 1.
%inhibition=(Max−Signal)/(Max−Min)*100 Equation 1: • (2) the % inhibition data were entered into XL-Fit Equation 2 to obtain IC50 value:
Y=Bottom+(Top−Bottom)/(1+(IC50/X)[…]) Equation 2: • wherein, Y is the % inhibition, and X is the concentration of the compound.

[2] = system: HCT116-MTAP-KO (MTAP null) cells; assay: Proliferation inhibition of HCT116 MTAP-KO cells in vitro (CellTiter Glo, 6 days); format: cell-based; conditions: 144 h, read-out: Cell proliferation inhibition rate HCT116-MTAP null IC50 (nm)
[3] = system: HCT116 MTAP WT cells; assay: Proliferation inhibition of HCT116 cells in vitro (CellTiter Glo, 6 days); format: cell-based; conditions: Homo sapiens, HCT-116, 144 h, read-out: Cell proliferation inhibition rate HCT116 MTAP WT IC50 (nm)

PRMT5 MTA, sequence (O14744 whole entry, looked up): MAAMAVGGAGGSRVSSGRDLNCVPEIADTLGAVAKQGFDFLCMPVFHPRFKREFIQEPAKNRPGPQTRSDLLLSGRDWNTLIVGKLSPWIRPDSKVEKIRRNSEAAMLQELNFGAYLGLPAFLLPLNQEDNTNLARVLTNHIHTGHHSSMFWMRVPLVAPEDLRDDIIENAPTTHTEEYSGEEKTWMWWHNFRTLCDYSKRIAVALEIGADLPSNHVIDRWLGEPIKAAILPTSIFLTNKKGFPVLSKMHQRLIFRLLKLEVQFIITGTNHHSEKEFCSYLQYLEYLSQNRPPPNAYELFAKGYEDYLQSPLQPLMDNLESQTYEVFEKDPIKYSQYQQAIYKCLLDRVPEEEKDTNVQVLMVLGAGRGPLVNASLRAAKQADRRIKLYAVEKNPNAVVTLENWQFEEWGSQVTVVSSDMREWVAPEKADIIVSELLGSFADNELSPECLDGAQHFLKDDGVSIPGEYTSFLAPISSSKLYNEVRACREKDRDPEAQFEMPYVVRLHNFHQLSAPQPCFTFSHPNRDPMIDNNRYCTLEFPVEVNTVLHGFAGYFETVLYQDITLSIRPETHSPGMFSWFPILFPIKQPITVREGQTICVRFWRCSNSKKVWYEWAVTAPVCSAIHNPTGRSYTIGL
PRMT5 MTA, sequence (Q9BQA1 whole entry partner, looked up): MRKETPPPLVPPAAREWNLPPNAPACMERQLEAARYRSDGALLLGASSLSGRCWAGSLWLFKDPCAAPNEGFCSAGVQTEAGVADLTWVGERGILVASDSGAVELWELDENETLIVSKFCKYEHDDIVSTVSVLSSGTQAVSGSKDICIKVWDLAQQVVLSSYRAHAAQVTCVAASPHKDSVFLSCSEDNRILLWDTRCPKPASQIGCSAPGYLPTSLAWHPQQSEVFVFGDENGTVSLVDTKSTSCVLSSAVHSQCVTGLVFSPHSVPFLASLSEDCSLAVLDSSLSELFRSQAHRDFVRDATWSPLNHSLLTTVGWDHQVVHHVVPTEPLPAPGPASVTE

| SMILES | IC50 [1] [nM] | IC50 [2] [nM] | IC50 [3] [nM] |
| --- | --- | --- | --- |
| CC(c1ncccn1)N(Cc1cn2ccccc2n1)C(=O)c1ccc2nc(N)c3c(c2c1)CCC3 (stereo not shown) [Example 1, 4-Amino-N-(pyrazolo[1,5-a]pyridin-2-ylmethyl)-N-(1-(pyrimidin-2-yl)ethyl)-2,3-dihydro-1H-cyclopentadieno[c]quinolin-8-carboxamide] | 5.1 | < 100 | 1000 to 10000 |
| CCN(Cc1cn2ccccc2n1)C(=O)c1cc2c(cc1F)nc(N)c1cnn(C)c12 [Example 2] | 3 | < 100 | 1000 to 10000 |
| CC(C)CN(Cc1cn2cc(C(F)(F)F)ccc2n1)C(=O)c1ccc2nc(N)c3cnn(C)c3c2c1 [Example 4] | 1.7 | < 100 | 1000 to 10000 |
| COCC(C1CC1)N(Cc1nc2ccccc2[nH]1)C(=O)c1ccc2nc(N)c(C)cc2c1 (stereo not shown) [Example 127] | 3.7 | < 100 | 1000 to 10000 |
| CC(C)CN(Cc1nc2ccc(C(F)(F)F)cc2[nH]1)C(=O)c1ccc2nc(N)c3cnn(C)c3c2c1 [Example 132] | 4.4 | < 100 | 1000 to 10000 |
| COCC(C1CC1)N(Cc1nc2ccccc2s1)C(=O)c1ccc2nc(N)c3c(c2c1)CCC3 (stereo not shown) [Example 147] | 2.9 | 100 to 1000 | 1000 to 10000 |
| Cc1cc2cc(C(=O)N(Cc3nc4ccccc4s3)C34CC(C3)C4)ccc2nc1N [Example 148] | 2.6 |  |  |
